Laboratory results published in ChEMBL document CHEMBL3217627, “Designing glucokinase activators with reduced hypoglycemia risk: discovery of N,N-dimethyl-5-(2-methyl-6-((5-methylpyrazin-2-yl)-carbamoyl)benzofuran-4-yloxy)pyrimidine-2-carboxamide as a clinical candidate for the treatment of type 2 diabetes mellitus” (Medchemcomm, 2011).
≈ marks a conversion by molar mass, not a printed value. Calls of active or inactive are those of the source. The calls are words filed in the database; no cut-off is given here.

How the values were obtained:
[1] = Kinetic solubility of the compound; type: physicochemical; details: read-out: Kinetic_solubility
[2] = Intrinsic clearance in human liver microsomes; type: ADME; details: read-out: CLH
[3] = Passive permeability across RRCK cells; type: ADME, cell-based, Canis lupus familiaris, MDCKII-LE; details: dog, MDCK; read-out: permeability
Hexokinase-4 = target: T1, Hexokinase-4 (Homo sapiens, UniProt P35557)
T1 sequence (P35557 whole entry): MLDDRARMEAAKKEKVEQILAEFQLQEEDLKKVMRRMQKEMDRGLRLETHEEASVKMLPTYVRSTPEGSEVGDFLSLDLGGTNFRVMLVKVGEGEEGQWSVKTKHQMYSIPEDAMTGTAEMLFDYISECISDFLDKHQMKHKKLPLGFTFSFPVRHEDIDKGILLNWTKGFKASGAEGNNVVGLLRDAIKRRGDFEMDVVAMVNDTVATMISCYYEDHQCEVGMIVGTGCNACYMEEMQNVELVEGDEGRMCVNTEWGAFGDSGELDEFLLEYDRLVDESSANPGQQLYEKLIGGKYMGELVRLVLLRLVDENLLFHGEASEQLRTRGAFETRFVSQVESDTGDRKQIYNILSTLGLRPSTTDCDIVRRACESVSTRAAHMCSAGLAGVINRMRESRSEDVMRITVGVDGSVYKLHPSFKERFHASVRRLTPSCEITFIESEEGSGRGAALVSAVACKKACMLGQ
Description: Activation of recombinant human glucokinase assessed as formation of glucose-6-phosphate by G6PDH/NADP coupled assay

hERG (KCNH2) = hERG (KCNH2) (Homo sapiens, UniProt Q12809); experiment: Inhibition of dofetilide binding to human ERG at 10 uM relative to control; details: probe dofetilide
Sequence of hERG (KCNH2) (Q12809 whole entry): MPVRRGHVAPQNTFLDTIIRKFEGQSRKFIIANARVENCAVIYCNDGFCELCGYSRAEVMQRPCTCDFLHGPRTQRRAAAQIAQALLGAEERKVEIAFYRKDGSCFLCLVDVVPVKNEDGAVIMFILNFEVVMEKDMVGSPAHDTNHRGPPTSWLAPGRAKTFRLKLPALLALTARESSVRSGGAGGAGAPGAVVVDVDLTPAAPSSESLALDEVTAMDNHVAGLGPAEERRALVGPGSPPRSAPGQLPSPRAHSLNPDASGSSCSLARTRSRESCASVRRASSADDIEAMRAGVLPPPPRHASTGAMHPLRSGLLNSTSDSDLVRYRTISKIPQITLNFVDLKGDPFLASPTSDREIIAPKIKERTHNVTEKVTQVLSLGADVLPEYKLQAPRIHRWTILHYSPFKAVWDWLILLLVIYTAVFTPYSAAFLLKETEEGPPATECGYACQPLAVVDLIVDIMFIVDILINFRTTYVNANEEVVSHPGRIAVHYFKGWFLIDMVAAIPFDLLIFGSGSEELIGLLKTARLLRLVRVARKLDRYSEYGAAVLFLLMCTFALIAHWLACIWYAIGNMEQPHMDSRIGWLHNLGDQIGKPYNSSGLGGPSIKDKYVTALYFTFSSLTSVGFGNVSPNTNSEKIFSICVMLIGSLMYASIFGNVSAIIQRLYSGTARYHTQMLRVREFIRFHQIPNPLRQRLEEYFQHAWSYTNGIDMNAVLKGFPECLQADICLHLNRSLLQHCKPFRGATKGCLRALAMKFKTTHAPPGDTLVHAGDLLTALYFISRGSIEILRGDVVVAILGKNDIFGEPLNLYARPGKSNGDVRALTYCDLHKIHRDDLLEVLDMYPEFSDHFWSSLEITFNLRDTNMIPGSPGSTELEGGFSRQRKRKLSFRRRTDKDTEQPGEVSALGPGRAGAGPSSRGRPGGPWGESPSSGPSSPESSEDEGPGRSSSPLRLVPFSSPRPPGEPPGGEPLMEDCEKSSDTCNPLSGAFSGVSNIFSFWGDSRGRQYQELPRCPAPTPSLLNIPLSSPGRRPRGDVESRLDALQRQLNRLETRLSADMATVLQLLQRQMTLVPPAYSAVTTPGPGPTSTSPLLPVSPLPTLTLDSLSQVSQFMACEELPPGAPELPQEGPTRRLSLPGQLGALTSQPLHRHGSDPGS

[4] = Clearance in Beagle dog at 0.5 mg/kg, iv and 5 mg/kg, po; type: ADME, organism-based, Canis lupus familiaris; details: in vivo
[5] = Clearance in cynomolgus monkey at 0.5 mg/kg, iv and 3 mg/kg, po; type: ADME, organism-based, Macaca fascicularis; details: in vivo
[6] = Half life in male Sprague-Dawley rat at 1 mg/kg, iv and po; type: ADME, organism-based; design: dose 1 mg/kg, route oral; details: in vivo
[7] = Half life in female Sprague-Dawley rat at 1 mg/kg, iv and po; type: ADME, organism-based; design: dose 1 mg/kg, route oral; details: in vivo
[8] = Half life in Beagle dog at 0.5 mg/kg, iv and 5 mg/kg, po; type: ADME, organism-based, Canis lupus familiaris; details: in vivo
[9] = Half life in cynomolgus monkey at 0.5 mg/kg, iv and 3 mg/kg, po; type: ADME, organism-based, Macaca fascicularis; details: in vivo
Rattus norvegicus [10] = experiment: Volume of distribution at steady state in male Sprague-Dawley rat at 1 mg/kg, iv and po; type: ADME, organism-based; design: dose 1 mg/kg, route oral; details: in vivo
Rattus norvegicus [11] = experiment: Volume of distribution at steady state in female Sprague-Dawley rat at 1 mg/kg, iv and po; type: ADME, organism-based; design: dose 1 mg/kg, route oral; details: in vivo
[12] = Volume of distribution at steady state in Beagle dog at 0.5 mg/kg, iv and 5 mg/kg, po; type: ADME, organism-based, Canis lupus familiaris; details: in vivo, read-out: Vdss
[13] = Volume of distribution at steady state in cynomolgus monkey at 0.5 mg/kg, iv and 3 mg/kg, po; type: ADME, organism-based, Macaca fascicularis; details: in vivo, read-out: Vdss
[14] = Oral bioavailability in male Sprague-Dawley rat at 1 mg/kg; type: ADME, organism-based; details: in vivo
[15] = Oral bioavailability in female Sprague-Dawley rat at 1 mg/kg; type: ADME, organism-based; details: in vivo
[16] = Oral bioavailability in Beagle dog at 5 mg/kg; type: ADME, organism-based, Canis lupus familiaris; details: in vivo
[17] = Oral bioavailability in cynomolgus monkey at 3 mg/kg; type: ADME, organism-based, Macaca fascicularis; details: in vivo
[18] = Drug excretion in Sprague-Dawley rat urine assessed as parent compound level at 1 mg/kg, iv; type: ADME, organism-based; design: dose 1 mg/kg, route intravenous; details: read-out: Drug excretion
[19] = Drug excretion in bile duct-cannulated rat bile assessed as parent compound level at 5 mg/kg, iv; type: ADME, organism-based; design: dose 5 mg/kg, route intravenous; details: read-out: Drug excretion
Pancreatic islet [20] = experiment: Induction of 9 to 13 mM glucose-induced insulin secretion in rat dispersed pancreatic islet static culture at 0.4 to 12 uM; type: functional
Pancreatic islet [21] = experiment: Induction of > 22 mM glucose-induced insulin secretion in rat dispersed pancreatic islet static culture at 0.4 to 12 uM; type: functional
Pancreatic islet [22] = experiment: Induction of 3 to 5 mM glucose-induced insulin secretion in rat dispersed pancreatic islet static culture at 0.4 to 1.2 uM; type: functional
Pancreatic islet [23] = experiment: Induction of 3 to 5 mM glucose-induced insulin secretion in rat dispersed pancreatic islet static culture at 4 to 12 uM; type: functional
Rattus norvegicus [24] = experiment: Antidiabetic activity in po dosed Sprague-Dawley rat assessed as reduction of post-prandial glucose excursion administered for 60 mins followed by glucose challenge measured up to 120 mins by OGTT; type: functional, organism-based

SMILES: Cc1cnc(NC(=O)c2cc(Oc3cnc(C(=O)N(C)C)cn3)c3cc(C)oc3c2)cn1
- solubility kinetic [1]: 176 µM (≈ 76.1 µg/mL)
- CLint scaled [2]: < 8.5 mL/min/kg

SMILES: Cc1cc2c(Oc3cnc(C(=O)N4CC(C)(C)C4)cn3)cc(C(=O)Nc3cnccn3)cc2o1
- Papp [3]: 7.7 ×10⁻⁶ cm/s
- solubility kinetic [1]: 78 µM (≈ 35.8 µg/mL)
- CLint scaled [2]: 21.2 mL/min/kg
- EC50 (Hexokinase-4): 705 nM

SMILES: Cc1cc2c(Oc3cnc(C(=O)N4CC(C)C4)cn3)cc(C(=O)Nc3cnccn3)cc2o1
- Papp [3]: 14.9 ×10⁻⁶ cm/s
- solubility kinetic [1]: 49 µM (≈ 21.8 µg/mL)
- inhibition at 10 µM (hERG (KCNH2)): 11%
- CLint scaled [2]: < 9.6 mL/min/kg
- EC50 (Hexokinase-4): 393 nM

SMILES: Cc1cc2c(Oc3cnc(C(=O)N(C)C)cn3)cc(C(=O)Nc3cnc(C(F)(F)F)cn3)cc2o1
- Papp [3]: 9.7 ×10⁻⁶ cm/s
- solubility kinetic [1]: 6 µM (≈ 2.92 µg/mL)
- inhibition at 10 µM (hERG (KCNH2)): 18%
- CLint scaled [2]: 16.1 mL/min/kg
- EC50 (Hexokinase-4): 167 nM

SMILES: Cc1cc2c(Oc3cnc(C(=O)N4CC(C)(O)C4)cn3)cc(C(=O)Nc3cnccn3)cc2o1
- Papp [3]: 9 ×10⁻⁶ cm/s
- solubility kinetic [1]: 137 µM (≈ 63.1 µg/mL)
- inhibition at 10 µM (hERG (KCNH2)): 10%
- CLint scaled [2]: < 8 mL/min/kg
- EC50 (Hexokinase-4): > 5000 nM

SMILES: Cc1ccc(Oc2cc(C(=O)Nc3cnc(C)cn3)cc3oc(C)cc23)cc1
- Papp [3]: 0.3 ×10⁻⁶ cm/s
- solubility kinetic [1]: 18 µM (≈ 6.72 µg/mL)
- CLint scaled [2]: 47 mL/min/kg
- EC50 (Hexokinase-4): 6610 nM

SMILES: Cc1cnc(NC(=O)c2cc(Oc3cnc(C(=O)N(C)C)nc3)c3cc(C)oc3c2)cn1 [NERIGLIATIN]
- solubility kinetic [1]: 463 µM (≈ 200 µg/mL)
- clearance [4]: 2.6 mL/min/kg
- clearance [5]: 9.4 mL/min/kg
- half-life [6]: 4.3 h
- half-life [7]: 1.2 h
- half-life [8]: 3.3 h
- half-life [9]: 1.8 h
- Vdss (Rattus norvegicus [10]): 2.1 L/kg
- Vdss (Rattus norvegicus [11]): 1.1 L/kg
- Vd [12]: 0.65 L/kg
- Vd [13]: 0.83 L/kg
- bioavailability [14]: 23%
- bioavailability [15]: 77%
- bioavailability [16]: 12%
- bioavailability [17]: 78%
- dose excreted [18]: 0.26%
- dose excreted [19]: 2.3%
- Activity (Pancreatic islet [20]): Active
- Activity (Pancreatic islet [21]): inactive
- Activity (Pancreatic islet [22]): inactive
- Activity (Pancreatic islet [23]): Active
- Activity (Rattus norvegicus [24]): Dose-dependent effect
- CLint scaled [2]: < 8 mL/min/kg

SMILES: Cc1cnc(NC(=O)c2cc(Oc3cnc(C(=O)N4CCCC4)cn3)c3cc(C)oc3c2)cn1
- Papp [3]: 15.8 ×10⁻⁶ cm/s
- solubility kinetic [1]: 4.5 µM (≈ 2.06 µg/mL)
- inhibition at 10 µM (hERG (KCNH2)): 6%
- CLint scaled [2]: < 8.1 mL/min/kg
- EC50 (Hexokinase-4): 64 nM

SMILES: Cc1cnc(NC(=O)c2cc(Oc3cnc(C(=O)N4CCC4)cn3)c3cc(C)oc3c2)cn1
- Papp [3]: 17.4 ×10⁻⁶ cm/s
- solubility kinetic [1]: 10 µM (≈ 4.44 µg/mL)
- inhibition at 10 µM (hERG (KCNH2)): 4%
- CLint scaled [2]: < 9.3 mL/min/kg
- EC50 (Hexokinase-4): 85 nM

SMILES: Cc1cc2c(Oc3cnc(C(=O)N4CC5(COC5)C4)cn3)cc(C(=O)Nc3cnccn3)cc2o1
- Papp [3]: 19.9 ×10⁻⁶ cm/s
- solubility kinetic [1]: 43 µM (≈ 20.3 µg/mL)
- CLint scaled [2]: 12.9 mL/min/kg
- EC50 (Hexokinase-4): 2170 nM

SMILES: COC1CN(C(=O)c2cnc(Oc3cc(C(=O)Nc4cnccn4)cc4oc(C)cc34)cn2)C1
- Papp [3]: 21.8 ×10⁻⁶ cm/s
- solubility kinetic [1]: 158 µM (≈ 72.8 µg/mL)
- inhibition at 10 µM (hERG (KCNH2)): 38%
- CLint scaled [2]: < 9.2 mL/min/kg
- EC50 (Hexokinase-4): > 5000 nM

SMILES: CNC(=O)c1cnc(Oc2cc(C(=O)Nc3cnc(C)cn3)cc3oc(C)cc23)cn1
- Papp [3]: 20.9 ×10⁻⁶ cm/s
- inhibition at 10 µM (hERG (KCNH2)): 0%
- CLint scaled [2]: 10.1 mL/min/kg
- EC50 (Hexokinase-4): > 5000 nM

SMILES: Cc1cnc(NC(=O)c2cc(Oc3ncc(C(=O)N(C)C)cn3)c3cc(C)oc3c2)cn1
- Papp [3]: 34.7 ×10⁻⁶ cm/s
- solubility kinetic [1]: 485 µM (≈ 210 µg/mL)
- inhibition at 10 µM (hERG (KCNH2)): 0%
- CLint scaled [2]: < 8 mL/min/kg
- EC50 (Hexokinase-4): > 20 nM

SMILES: Cc1cnc(NC(=O)c2cc(Oc3ccc(C(=O)N(C)C)nc3)c3cc(C)oc3c2)cn1
- Papp [3]: 28.5 ×10⁻⁶ cm/s
- solubility kinetic [1]: 418 µM (≈ 180 µg/mL)
- inhibition at 10 µM (hERG (KCNH2)): 5%
- CLint scaled [2]: 11.6 mL/min/kg
- EC50 (Hexokinase-4): 480 nM

SMILES: CCN(C)C(=O)c1cnc(Oc2cc(C(=O)Nc3cnc(C)cn3)cc3oc(C)cc23)cn1
- Papp [3]: 24.1 ×10⁻⁶ cm/s
- solubility kinetic [1]: 344 µM (≈ 154 µg/mL)
- inhibition at 10 µM (hERG (KCNH2)): 6%
- CLint scaled [2]: < 8 mL/min/kg
- EC50 (Hexokinase-4): 153 nM

SMILES: CCc1cnc(NC(=O)c2cc(Oc3cnc(C(=O)N(C)C)cn3)c3cc(C)oc3c2)cn1
- Papp [3]: 23.7 ×10⁻⁶ cm/s
- solubility kinetic [1]: 117 µM (≈ 52.2 µg/mL)
- CLint scaled [2]: 12.2 mL/min/kg
- EC50 (Hexokinase-4): 254 nM
